# Measurements taken from ChEMBL document CHEMBL4706711, “Alkaloids of Delphinium grandiflorum and their implication to HO-induced cardiomyocytes injury” (Bioorg Med Chem, 2021).
# Active and inactive are the calls of the source. The rule behind the calls is not given here.
# Assays:
# [1] = tested on: H9c2; assay: Cardioprotective activity against rat H9c2 cells assessed as reduction in H2O2-induced cell death preincubated for 24 hrs followed by H2O2 stimulation and measured after 1 hr by CCK8 assay; assay type: functional, cell-based
# [2] = tested on: H9c2; assay: Cytotoxicity against rat H9c2 cells assessed as reduction in cell viability at 50 uM measured after 24 hrs by CCK8 assay; assay type: cell-based; conditions: h9c2, 24 h
# [3] = tested on: H9c2; assay: Cardioprotective activity against rat H9c2 cells assessed as reduction in H2O2-induced cell death at 50 uM preincubated for 24 hrs followed by H2O2 stimulation and measured after 1 hr by CCK8 assay; assay type: functional, cell-based; conditions: time 25.0 hrs
# [4] = tested on: H9c2; assay: Cardioprotective activity against rat H9c2 cells assessed as reduction in H2O2-induced apoptosis by measuring up regulation of Bcl2 expression at 2 uM preincubated for 24 hrs followed by H2O2 stimulation and measured after 1 hr by Western blot analysis; assay type: functional, cell-based; conditions: time 25.0 hrs
# [5] = tested on: H9c2; assay: Cardioprotective activity in H2O2-induced mitochondrial membrane potential loss in rat H9c2 cells assessed as increase in MMP level at 2 uM preincubated for 24 hrs followed by H2O2 stimulation and measured after 1 hr by JC1 staining based flow cytometry; assay type: functional, cell-based; conditions: time 25.0 hrs
# [6] = tested on: H9c2; assay: Cardioprotective activity against rat H9c2 cells assessed as reduction in H2O2-induced ROS generation at 2 uM preincubated for 24 hrs followed by H2O2 stimulation and measured after 1 hr by DCFH-DA staining based flow cytometry; assay type: functional, cell-based; conditions: time 25.0 hrs
# [7] = tested on: H9c2; assay: Activation of AMPKalpha in H2O2-induced rat H9c2 cells assessed as reduction in mTOR expression at 2 uM preincubated for 24 hrs followed by H2O2 stimulation and measured after 1 hr by Western blot analysis; conditions: filed as activator, time 25.0 hrs
# [8] = tested on: H9c2; assay: Activation of AMPKalpha in H2O2-induced rat H9c2 cells assessed as reduction in AKT expression at 2 uM preincubated for 24 hrs followed by H2O2 stimulation and measured after 1 hr by Western blot analysis; conditions: filed as activator, time 25.0 hrs
# [9] = tested on: H9c2; assay: Activation of AMPKalpha in H2O2-induced rat H9c2 cells assessed as increase in AMPKalpha phosphorylation at […] residues at 2 uM preincubated for 24 hrs followed by H2O2 stimulation and measured after 1 hr by Western blot analysis; conditions: filed as activator, time 25.0 hrs
# [10] = tested on: H9c2; assay: Cardioprotective activity against rat H9c2 cells assessed as reduction in H2O2-induced apoptosis by measuring down regulation of Bax expression at 2 uM preincubated for 24 hrs followed by H2O2 stimulation and measured after 1 hr by Western blot analysis; assay type: functional, cell-based; conditions: time 25.0 hrs
SMILES,IC50 [1],Activity [2],Activity [3],further results
COC(=O)c1ccccc1NC(=O)CC(C)C(=O)O (stereo not drawn),1900 nM,Non-Toxic,–,–
CCN1C2OC(=O)[C@]3(CO)CC[C@H](OC)C24[C@@H]2C[C@@H]5[C@H](OC)[C@@H]2[C@](O)(C[C@@H]5OC)[C@]1(O)[C@@H](OC)[C@@H]43,–,Non-Toxic,Active,–
CO[C@H]1[C@@H]2C[C@@H]3[C@H]1[C@](O)(C[C@@H]2OC)[C@@]1(O)C2[N+]([O-])=C[C@]4(CO)CC[C@H](OC)[C@@]23[C@@H]4[C@@H]1OC,–,–,inactive,–
CCN1C(=O)[C@]2(CO)CC[C@H](OC)[C@]34C1[C@](O)([C@@H](OC)[C@H]23)[C@@]1(O)C[C@H](OC)[C@H]2C[C@@H]4[C@@H]1[C@H]2OC,1880 nM,Non-Toxic,Active,Activity [4]: Active; Activity [5]: Active; Activity [6]: Active; Activity [7]: Active; Activity [8]: Active; Activity [9]: Active; Activity [10]: Active
CO[C@H]1[C@@H]2C[C@@H]3[C@H]1[C@](O)(C[C@@H]2OC)C(=O)[C@@H](OC)[C@@H]1[C@@]2(COC(C)=O)CC[C@H](OC)[C@@]31C=[N+]([O-])C2,–,–,inactive,–
CCN1C(=O)[C@]2(CO)CC[C@H](OC)[C@]34C1O[C@@](O)([C@@H](OC)[C@H]23)[C@@]1(O)C[C@H](OC)[C@@H]2C[C@@H]4[C@@H]1[C@H]2OC,–,Non-Toxic,Active,–
